This is an account of results in US8497278B2, “Imidazo[1,2-a]pyridine compounds” (priority 2008, dated 2013).

The subject of assay [1] is central benzodiazepine receptors. The assay is described as follows: Central benzodiazepine receptor binding (test of Speth et al.). Conditions: 1000 nM of the compound. Summed up:
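Values are percent inhibition of central benzodiazepine receptor binding at 1000 nM compound (initial single-point screen at 1.0E-09, 1.0E-07 and 1.0E-05 M). Speth et al. binding test; nonspecific binding defined with excess unlabelled ligand and subtracted from total.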

For assay [2], the target named is T1, α1 subtype containing GABA-A receptors (Homo sapiens, UniProt P14867+P18507).
T1 construct: expressed in transfected cells; host or cells: Xenopus laevis oocytes, cRNA injected
Description: Two-electrode voltage clamp electrophysiology in Xenopus oocytes, potentiation of GABA EC20 response, α1. In kind it is cell-based. Conditions: 100 nM compound; for activation at 0.1 µM: read-out: Percentage of potentiation alpha1. Here is the method: (§1) Electrophysiology protocol: Oocytes were prepared from adult female Xenopus laevis frogs. cRNA encoding human α1, α2, α3, α5, β3 and γ2L GABAA receptor subunits was injected into the cytoplasm of stage 5 or 6 oocytes using the Robocyte Robot (Multi Channel Systems, Reutlingen, Germany). Two-electrode voltage clamp recordings were made in 96-well plates using the Robocyte Robot. Oocytes were impaled using recording heads with two glass electrodes containing 1.5 M potassium acetate and 0.5 M KCl and held at a membrane potential of −80 mV. Oocytes were continually perfused with a ND96 solution (96 mM NaCl, 2 mM KCl, 0.1 mM CaCl2, and 5 mM HEPES, pH 7.5) using a Gilson 222 XL Liquid Handler and Gilson Minipuls 3 Peristaltic Pump (Gilson Medical Electronics, Middleton, Wis., USA). The protocol consisted of three 20-s applications of GABA that gave a 20% of the maximum response (EC20: 60 μM) to allow for headroom to determine a baseline GABA response. To assess the potentiation, oocytes were first exposed to a single 1 μM chlordiazepoxide (CDP) as a potentiation standard. Oocytes with insufficient expression levels (currents below threshold) or insufficient γ2L subunit incorporation (judged by rapid desensitization upon GABA application, or by insufficient potentiation by CDP) were not included in analysis. Following this control application, a given oocyte was exposed to test compounds at 100 nM concentrations. Only one concentration of one compound was tested per oocyte. […] One skilled in the art will recognize that subtypes contribute to the effects of GABA-A modulators. Such that compounds favoring different subtypes can have different therapeutic effects. The magnitude of modulation, for example, partial modulators can influence the effects in vivo. “++” indicates a greater modulation that “+” so that at any given subtype “++” inducates a greater amount of modulation for that subtype. In some embodiments, modulation favoring alpha 1 relative to alpha2 and/or alpha 3 can have sedative hypnotic effects. In other embodiments, compounds with reduced selectivity of alpha 1 can express anxiolytic effects with less sedation. Compounds with selectivity for alpha 5 can have memory/cognition enhancing effects.
For orientation: Two-electrode voltage clamp holds a large cell at a set potential and records current.

The target of assay [3] is T2, α2 subtype containing GABA-A receptors (Homo sapiens, UniProt P18507+P47869).
T2 construct: expressed in transfected cells; host or cells: Xenopus laevis oocytes, cRNA injected
The assay is described as follows: Two-electrode voltage clamp electrophysiology in Xenopus oocytes, potentiation of GABA EC20 response, α2. The class given is cell-based. The note with it: 100 nM compound; for activation at 0.1 µM: read-out: Percentage of potentiation alpha2. Here is the method: as §1

T2 sequence (P47869 29-451): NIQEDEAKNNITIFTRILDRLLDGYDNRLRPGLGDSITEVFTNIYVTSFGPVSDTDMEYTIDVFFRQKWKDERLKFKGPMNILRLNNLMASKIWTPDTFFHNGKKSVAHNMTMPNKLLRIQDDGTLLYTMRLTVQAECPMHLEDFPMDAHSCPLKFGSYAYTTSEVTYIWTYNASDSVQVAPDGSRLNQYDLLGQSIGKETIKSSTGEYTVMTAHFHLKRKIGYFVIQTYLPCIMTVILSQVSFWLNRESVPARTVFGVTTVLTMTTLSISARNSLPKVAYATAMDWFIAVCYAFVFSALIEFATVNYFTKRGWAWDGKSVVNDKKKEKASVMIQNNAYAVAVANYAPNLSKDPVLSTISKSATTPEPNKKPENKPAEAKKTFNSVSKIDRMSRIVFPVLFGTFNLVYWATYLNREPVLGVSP
T2 sequence (P28472 26-473 partner): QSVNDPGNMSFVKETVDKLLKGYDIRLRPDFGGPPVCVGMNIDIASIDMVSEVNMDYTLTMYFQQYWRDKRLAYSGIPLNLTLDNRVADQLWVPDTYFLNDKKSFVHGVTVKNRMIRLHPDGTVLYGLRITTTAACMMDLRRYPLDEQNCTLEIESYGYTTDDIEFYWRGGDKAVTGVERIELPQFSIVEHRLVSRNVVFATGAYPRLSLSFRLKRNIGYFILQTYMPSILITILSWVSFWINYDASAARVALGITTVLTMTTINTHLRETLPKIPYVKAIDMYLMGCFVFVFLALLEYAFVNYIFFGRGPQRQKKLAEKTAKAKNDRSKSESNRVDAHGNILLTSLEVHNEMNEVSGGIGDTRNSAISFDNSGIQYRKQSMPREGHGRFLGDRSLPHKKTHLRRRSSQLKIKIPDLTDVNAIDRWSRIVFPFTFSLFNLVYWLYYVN
T2 sequence (P18507 40-475): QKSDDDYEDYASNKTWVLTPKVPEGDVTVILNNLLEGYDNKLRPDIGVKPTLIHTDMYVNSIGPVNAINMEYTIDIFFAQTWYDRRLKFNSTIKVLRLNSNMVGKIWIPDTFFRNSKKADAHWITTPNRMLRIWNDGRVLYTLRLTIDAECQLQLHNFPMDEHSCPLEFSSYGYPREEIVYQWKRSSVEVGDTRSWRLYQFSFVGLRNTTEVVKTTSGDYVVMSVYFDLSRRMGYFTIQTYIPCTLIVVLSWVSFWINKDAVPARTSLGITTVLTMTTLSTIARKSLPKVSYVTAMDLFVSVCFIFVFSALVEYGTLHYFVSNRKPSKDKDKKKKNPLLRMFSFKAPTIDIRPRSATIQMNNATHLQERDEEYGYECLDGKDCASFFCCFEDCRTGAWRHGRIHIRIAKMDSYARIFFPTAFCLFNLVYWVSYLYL
T1 sequence (P14867 28-456): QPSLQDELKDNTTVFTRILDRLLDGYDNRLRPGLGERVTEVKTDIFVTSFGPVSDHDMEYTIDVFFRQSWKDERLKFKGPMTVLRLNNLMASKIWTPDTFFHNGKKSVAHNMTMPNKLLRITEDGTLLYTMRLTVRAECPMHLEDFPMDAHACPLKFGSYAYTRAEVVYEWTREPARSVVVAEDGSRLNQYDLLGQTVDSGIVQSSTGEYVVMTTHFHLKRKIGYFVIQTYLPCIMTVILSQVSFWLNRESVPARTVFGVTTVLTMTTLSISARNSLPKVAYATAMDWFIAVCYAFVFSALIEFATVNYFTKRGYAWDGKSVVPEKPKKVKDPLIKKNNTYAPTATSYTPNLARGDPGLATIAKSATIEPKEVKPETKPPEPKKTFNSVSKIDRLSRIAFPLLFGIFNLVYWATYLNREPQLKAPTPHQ
T1 sequence (P28472 26-473 partner): as the sequence (P28472 26-473 partner) above
T1 sequence (P18507 40-475): as the sequence (P18507 40-475) above

As to `O=C1CCN1Cc1c(-c2ccccc2)nc2ccc(Cl)cn12` [Compound 115, 1-(6-Chloro-2-phenyl-imidazo[1,2-a]pyridin-3-ylmethyl)-azetidin-2-one], the “% Inhibition at 1000 nM for CBZD” value in assay [1] is listed as “++ (percentage of inhibition of central BZD site binding is greater than 80% in the presence of 1000 nM of the compound)”. For the same compound, the activation at 0.1 µM in assay [2] and in assay [3] was 10 to 50% each time.
Consider `OC1CCN(c2ccnc(NCc3c(-c4ccc(F)cc4)nc4ccc(Cl)cn34)n2)C1` (stereo not drawn) [Compound 189, 1-(2-((6-chloro-2-(4-fluorophenyl)imidazo[1,2-a]pyridin-3-yl)methylamino)pyrimidin-4-yl)pyrrolidin-3-ol], for which the “% Inhibition at 1000 nM for CBZD” value in assay [1] was “++ (percentage of inhibition of central BZD site binding is greater than 80% in the presence of 1000 nM of the compound)”. Further, the activation at 0.1 µM in assay [2] and in assay [3] was at least 50% in each case.
For the compound `Brc1ccc(-c2nc3ccccn3c2Cn2cncn2)cc1` [Compound 64, 3-((1H-1,2,4-triazol-1-yl)methyl)-2-(4-bromophenyl)H-imidazo[1,2-a]pyridine], in assay [1], the “% Inhibition at 1000 nM for CBZD” value is “++ (percentage of inhibition of central BZD site binding is greater than 80% in the presence of 1000 nM of the compound)”. Moreover, the “Percentage of potentiation alpha1” value in assay [2] was “+ (percentage of potentiation is greater than or equal to 10% but less than 50% in the presence of 100 nM of the compound)”. In assay [3], the “Percentage of potentiation alpha2” value is given as “+ (percentage of potentiation is greater than or equal to 10% but less than 50% in the presence of 100 nM of the compound)”.
`Cc1ccc2nc(-c3ccc(F)cc3)c(Cn3cncn3)n2c1` [Compound 63, 3-((1H-1,2,4-triazol-1-yl)methyl)-2-(4-fluorophenyl)-6-methylH-imidazo[1,2-a]pyridine]: the “% Inhibition at 1000 nM for CBZD” value in assay [1] is reported as “++ (percentage of inhibition of central BZD site binding is greater than 80% in the presence of 1000 nM of the compound)”. Further, in assay [2], the “Percentage of potentiation alpha1” value is recorded as “+ (percentage of potentiation is greater than or equal to 10% but less than 50% in the presence of 100 nM of the compound)”. For the same compound, in assay [3], the “Percentage of potentiation alpha2” value is 0 (percentage of potentiation is between about 10% to about −10%).
Turning to `Fc1ccc(-c2nc3ccc(Cl)cn3c2Cn2cncn2)cc1` [Compound 62, 3-((1H-1,2,4-triazol-1-yl)methyl)-6-chloro-2-(4-fluorophenyl)H-imidazo[1,2-a]pyridine], in assay [1], the “% Inhibition at 1000 nM for CBZD” value was “++ (percentage of inhibition of central BZD site binding is greater than 80% in the presence of 1000 nM of the compound)”. The “Percentage of potentiation alpha1” value in assay [2] was “+ (percentage of potentiation is greater than or equal to 10% but less than 50% in the presence of 100 nM of the compound)”. For the same compound, in assay [3], the “Percentage of potentiation alpha2” value was 0 (percentage of potentiation is between about 10% to about −10%).
On the same counts, the results for `Cc1ccc(-c2nc3ccc(C)cn3c2CNc2nccs2)cc1` [Compound 150, N-((6-methyl-2-p-tolylH-imidazo[1,2-a]pyridin-3-yl)methyl)thiazole-2-amine] are “++ (percentage of inhibition of central BZD site binding is greater than 80% in the presence of 1000 nM of the compound)”, 0 (percentage of potentiation is between about 10% to about −10%) and “+ (percentage of potentiation is greater than or equal to 10% but less than 50% in the presence of 100 nM of the compound)”.
`Cc1cc(Cl)nc(NCc2c(-c3ccc(Cl)cc3)nc3ccccn23)n1` [Compound 159, 4-chloro-N-((2-(4-chlorophenyl)imidazo[1,2-a]pyridin-3-yl)methyl)-6-methylpyrimidin-2-amine]: the “% Inhibition at 1000 nM for CBZD” value in assay [1] was “++ (percentage of inhibition of central BZD site binding is greater than 80% in the presence of 1000 nM of the compound)”. Moreover, the activation at 0.1 µM in assay [2] and in assay [3] was 10 to 50% throughout.
`Fc1ccc2nc(-c3ccc(Cl)cc3)c(Cn3nc4ccccc4n3)n2c1` [Compound 59, 2-((2-(4-chlorophenyl)-6-fluoroH-imidazo[1,2-a]pyridin-3-yl)methyl)-2H-benzo[d][1,2,3]triazole]: the “% Inhibition at 1000 nM for CBZD” value in assay [1] is “+ (percentage of inhibition of central BZD site binding is greater than 50% but less than 80% in the presence of 1000 nM of the compound)”. For the same compound, the “Percentage of potentiation alpha1” value in assay [2] was 0 (percentage of potentiation is between about 10% to about −10%). In addition, the “Percentage of potentiation alpha2” value in assay [3] is reported as 0 (percentage of potentiation is between about 10% to about −10%).
For the compound `Cc1cccc(=O)n1Cc1c(-c2ccc(Cl)cc2)nc2ccc(F)cn12` [Compound 120, 1-((2-(4-chlorophenyl)-6-fluoroimidazo[1,2-a]pyridin-3-yl)methyl)-6-methylpyridin-2(1H)-one], in assay [1], the “% Inhibition at 1000 nM for CBZD” value is “++ (percentage of inhibition of central BZD site binding is greater than 80% in the presence of 1000 nM of the compound)”. Besides, the activation at 0.1 µM in assay [2] and in assay [3] was at least 50% in each case.
As to `Cc1ccc(-c2nc3ccc(C)cn3c2CSc2nnc(C)s2)cc1` [Compound 179, 6-Methyl-3-(5-methyl-[1,3,4]thiadiazol-2-ylsulfanylmethyl)-2-p-tolyl-imidazo[1,2-a]pyridine], the “% Inhibition at 1000 nM for CBZD” value in assay [1] was “++ (percentage of inhibition of central BZD site binding is greater than 80% in the presence of 1000 nM of the compound)”. Besides, the activation at 0.1 µM in assay [2] and in assay [3] was -10 to 10% each time.
`Cn1ccnc1Cc1c(-c2ccc(Cl)cc2)nc2ccccn12` [Compound 206, 2-(4-chlorophenyl)-3-((1-methyl-1H-imidazol-2-yl)methyl)imidazo[1,2-a]pyridine]: the “% Inhibition at 1000 nM for CBZD” value in assay [1] is “++ (percentage of inhibition of central BZD site binding is greater than 80% in the presence of 1000 nM of the compound)”. Moreover, the activation at 0.1 µM in assay [2] and in assay [3] was at least 50% each time.
With `CCNCc1ccnc(NCc2c(-c3ccc(F)cc3)nc3ccc(C)cn23)n1` [Compound 196, 4-((ethylamino)methyl)-N-((2-(4-fluorophenyl)-6-methylimidazo[1,2-a]pyridin-3-yl)methyl)pyrimidin-2-amine], the “% Inhibition at 1000 nM for CBZD” value in assay [1] is recorded as “++ (percentage of inhibition of central BZD site binding is greater than 80% in the presence of 1000 nM of the compound)”. Besides, the activation at 0.1 µM in assay [2] and in assay [3] was at least 50% each time.
Take `Cc1nnc(Cc2c(-c3ccc(Cl)cc3)nc3ccccn23)[nH]1` [Compound 233, 2-(4-chlorophenyl)-3-((5-methyl-4H-1,2,4-triazol-3-yl)methyl)imidazo[1,2-a]pyridine]: the “% Inhibition at 1000 nM for CBZD” value in assay [1] is given as “++ (percentage of inhibition of central BZD site binding is greater than 80% in the presence of 1000 nM of the compound)”. The activation at 0.1 µM in assay [2] was 10 to 50%; in assay [3], at least 50%.
On to `Cc1ccc(-c2nc3ccc(C)cn3c2Cn2nc(C)cc2C)cc1` [Compound 9, 6-Methyl-3-((3,5-dimethyl-1H-pyrazol-1-yl)methyl)-2-p-tolylH-imidazo[1,2-a]pyridine], for which the “% Inhibition at 1000 nM for CBZD” value in assay [1] was “++ (percentage of inhibition of central BZD site binding is greater than 80% in the presence of 1000 nM of the compound)”. In addition, the “Percentage of potentiation alpha1” value in assay [2] is on record as “+ (percentage of potentiation is greater than or equal to 10% but less than 50% in the presence of 100 nM of the compound)”. Moreover, the “Percentage of potentiation alpha2” value in assay [3] was “+ (percentage of potentiation is greater than or equal to 10% but less than 50% in the presence of 100 nM of the compound)”.
Take `Fc1ccc2nc(-c3ccc(Cl)cc3)c(Cn3ccnn3)n2c1` [Compound 57, 3-((1H-1,2,3-triazol-1-yl)methyl)-2-(4-chlorophenyl)-6-fluoroH-imidazo[1,2-a]pyridine]: in assay [1], the “% Inhibition at 1000 nM for CBZD” value is on record as “++ (percentage of inhibition of central BZD site binding is greater than 80% in the presence of 1000 nM of the compound)”. The “Percentage of potentiation alpha1” value in assay [2] is reported as “+ (percentage of potentiation is greater than or equal to 10% but less than 50% in the presence of 100 nM of the compound)”. Moreover, in assay [3], the “Percentage of potentiation alpha2” value is reported as “++ (percentage of potentiation is greater than or equal to 50% in the presence of 100 nM of the compound)”.
